The source of these data is article PMC9986545, “A novel oral formulation of the melanocortin-1 receptor agonist PL8177 resolves inflammation in preclinical studies of inflammatory bowel disease and is gut restricted in rats, dogs, and humans” (Frontiers in Immunology, 2023).

Experiment [1] has as its system male Wistar rats with DSS-induced colitis. Nature of the experiment: DSS-induced colitis model in rats. The experiment is classed as in vivo. The method, then: . Groups of 6 male Wistar rats weighing 200 ± 20 g were used. All animals, except those in the sham group, received 5% DSS in the drinking water for 3 days, from day 1 to day 3, which was then changed to normal drinking water for the following 5 days in the study. The rats in the sham group were given drinking water only. […]. Mesalazine, which is approved for the treatment of IBD, including ulcerative colitis and Crohn’s disease, was administered orally as a positive control (300 mg/kg once daily) starting on day 4 through day 7 for a total of 4 consecutive days ( Figure 1 ). Colitis was assessed by disease activity index (diarrhea and rectal bleeding) during the study and by colon length shortening, colon weight gain, and colon histopathologic assessment after organ harvesting on day 8. At termination on day 8, 24 hours after the last dose, colon tissues were harvested, rinsed, photographed, weighed, and their lengths measured, and then cut into 2 halves 7 cm from the anus. One half of the harvested colon tissue was snap-frozen with liquid nitrogen for cytokine measurement (interferon [IFN]-γ, IL-1β, IL-6, and TNF-α). The other half of the colon tissue was further cut into 3 parts 2.5, 5, and 7 cm from the anus, fixed in 10% formalin, and kept in 70% ethanol for histopathology. The colon length and colon-to-body weight ratio was calculated for each animal according to the formula: colon weight (g)/body weight (g) × 100%. Colon tissues from rats (n=6 per treatment group) were drop-fixed in 4% paraformaldehyde embedded in paraffin, and sectioned at 4 µm. For histologic scoring, colon sections were stained with hematoxylin and eosin. For immunohistochemistry, colon sections were processed for antigen retrieval and immunostained with primary antibody: keratin 18 (K18) (1:400, Bioss, bs-5405R) and with a rabbit-specific biotin-conjugated secondary antibody from HistoWiz (HistoWiz, Inc. Brooklyn, NY). Representative images were taken at 10x magnification and quantification was performed using HistoWiz AI technology counting positive cells versus all nuclei, specifically in the crypts. All analyses were performed by blinded individuals.
Histologic criteria for the analysis of colitis included abnormalities of mucosal architecture, extent of inflammation, erosion or ulceration, epithelial regeneration, and the percentage involvement of the disease process. The scoring was based on the findings of independent observers by examining 3 colon sections from each animal. Scoring was from 0 = none to 4 = severe for each item, except for percentage involvement of disease process, which scored from 1 (1%–25%) to 4 (76%–100%). Total scores for colitis (total colitis index) were added, resulting in a combined histologic score range from 0 to 60 ( Table S1 ).
Descriptive statistics were used for assessment of colon damage scores (diarrhea, rectal bleeding, and colon weight gain) (DNBS and DSS rat studies) and for the distribution of PL8177 and main metabolite in the GI tract (Sprague-Dawley rat and dog studies). Mean ± SEM were determined, and 1-way analysis of variance followed by Dunnett’s test was applied for comparison between the vehicle and treated groups. Significance was set at the P<0.05 level.
Table S1.Scoring Table for Calculating Total Colitis Index Score in DSS Colitis –Induced Rats
Abnormalities of mucosal None (Norm al) 0
Minimal for focal, not exceeding laminar propria 1
Mild abnormality, cystic dilation/aberrant crypts 2
Moderate or multifocal abnormalities 3
Severe, entire crypt and epithelium lost 4
Extent of inflammation None 0
Minimal for focal, scatter ed calls (<10 %) 1
Moderate, inflammatory cells extending into the submucosa 3
Severe, transmural leukocytic infiltrate from mucosa to serosa 4
Erosion or ulceration No erosion, ulceration, or granulation tissue 0
Minimal or focal, not exceeding lamina propri a 1
Severe ulceration or granulation tissue 4
Epithelial regression Complete regeneration or normal tissue 0 […]

For the next experiment, the system named is mice with colitis. Details: method as in PMID 9145424. To be noted: twice-daily α-MSH exposure; cited from earlier work.
[2] abbreviates: Mesalazine 300 mg/kg QD oral, days 4-7, day 8, n=6.

As to `Nc1ccc(O)c(C(=O)O)c1` [Mesalazine], the “% Decrease in Colon Weight vs Vehicle Control” value in experiment [1] (Mesalazine 300 mg/kg QD oral, days 4-7, day 8) is on record as 35%. Besides, in experiment [1] (setting [2]), the “Mean Colon Length (SEM)” value was 18.6 (0.5) cm, the “Mean Colon Weight (SEM)” value is 0.570 (0.031) g, the “Mean Colon Weight/100 g Body Weight (SEM)” value is on record as 0.235 (0.012) and the “Net Increase (SEM) of colon weight/100 g body weight” value is 0.073 (0.012). In addition, the “Mean Body Weight (SEM) (Day 8)” value in experiment [1] (Mesalazine 300 mg/kg QD oral, days 4-7, n=6) is given as 242.5 (3.0) g. Moreover, the “Number of K18 positive cells in colon crypts (immunohistochemistry) vs vehicle” value in experiment [1] (PL8177 (100 µg) or mesalazine, day 8) is on record as “increased number of K18 positive cells, similar to sham”. Moreover, the “Total colitis score (total colitis index), mean [SD]” value in experiment [1] (mesalazine 300 mg/kg QD oral, histology day 8, n=6, range 0-60) is 28.5 [7.71].

For the molecule α-MSH, the “Reduction in fecal blood” value in the experiment on mice with colitis is on record as 80%.
